Data taken from US20130158084A1, “Pharmaceutical Composition Comprising Losartin For Treating or Preventing Statin BasedGrug-Induced Muscle Toxicity” (HANALL BIOPHARMA CO., LTD., priority 2011, published 2013).
Read-outs that look alike come from different tables or passages of the source.

Experiments:
[1] = test system: extensor digitorum longus muscle; conditions: after three weeks
Experimental: In addition, a 0.5% MC solution or physiological saline was orally administered to a control group.
Then, the concentration of a muscle toxicity-associated enzyme, such as creatine kinase (CK) and lactate dehydrogenase (LDH) in blood was measured and a histological analysis was performed.
The rats were anesthetized with ether after three weeks of starting the administration for each experimental group; an extensor digitorum longus muscle was removed; fixed in paraffin; and then made into 5 μm coronal sections. The paraffin was removed with xylene, hydrophilicized with alcohol, and then stained with hematoxylin and eosin to observe the tissue through an optical microscope (Olympus Optical, Co., Japan).

[2] = after oral administration; cited from earlier work
[3] = Frequency of muscular side effects according to dosage (Zocor Tablet Label); type: in vivo; conditions: dosage of 80 mg compared to 20 mg
Text: In addition, it is reported that the side effects are increased when the concentration of the statin-based drug in blood is increased in the most cases. […] 16, 2011].

CC(C)c1c(C(=O)Nc2ccccc2)c(-c2ccccc2)c(-c2ccc(F)cc2)n1CC[C@@H](O)C[C@@H](O)CC(=O)O [Atorvastatin, atorvastatin]
Degree of Muscle Tissue Damage, Scores (0: Normal, +1: internal nuclei, +2: Myositis, +3: internal nuclei + myositis) ([1]; 40 mg/kg atorvastatin alone): 1.0 ± 0.0
Degree of Muscle Tissue Damage, Scores (0: Normal, +1: internal nuclei, +2: Myositis, +3: internal nuclei + myositis) ([1]; 80 mg/kg atorvastatin alone): 1.8 ± 0.2

CCCCc1nc(Cl)c(CO)n1Cc1ccc(-c2ccccc2-c2nn[nH]n2)cc1 [Losartan, 2-butyl-4 chloro-1-[2-(1H-tetrazol-5-yl)biphenyl-4-ylphenyl]-1H-imidazol-5-methanol]
Time to maximum concentration in the blood (losartan molecules) [2]: within one hour

CCC(C)(C)C(=O)O[C@H]1C[C@@H](C)C=C2C=C[C@H](C)[C@H](CC[C@@H]3C[C@@H](O)CC(=O)O3)[C@H]21 [simvastatin]
Increase in frequency of muscular side effects, 80 mg compared to 20 mg [3]: at least 20 times
